Reference: patent publication US20260022142A1, “MACROCYCLIC IMMUNOMODULATORS” (Bristol-Myers Squibb Company, priority 2022, published 2026)
Bridge positions count the residues as written; N and C are the ends. Square brackets hold non-standard residues; d marks the D form. Peptide text beside a SMILES is read from it. * marks the point of attachment. ξ: configuration not given here. Phe(4-CONH2) = NC(=O)c1ccc(C[C@H](N)C(=O)O)cc1; Phe(4-COOH) = N[C@@H](Cc1ccc(C(=O)O)cc1)C(=O)O; Bip = N[C@@H](Cc1ccc(-c2ccccc2)cc1)C(=O)O; Phe(3-Me) = Cc1cccc(C[C@H](N)C(=O)O)c1; Val(3-OH) = CC(C)(O)[C@H](N)C(=O)O; Cha = N[C@@H](CC1CCCCC1)C(=O)O; Thr(3ξ) = CC(O)[C@H](N)C(=O)O; Carboxymethyl = O=C(O)C*; Orn = NCCC[C@H](N)C(=O)O; Aun = NCCCCCCCCCCC(=O)O; Dab = NCC[C@H](N)C(=O)O; Dap = NC[C@H](N)C(=O)O; AEEA = NCCOCCOCC(=O)O; Piv = CC(C)(C)C(=O)*

Target: T1, PD-1/PD-L1 interaction (PE-labeled human PD-L1-Ig binding to Jurkat cell line over-expressing human PD-1) (Homo sapiens, UniProt Q15116)
T1 construct: expressed in transfected cells; host or cells: Jurkat
Experiment: Jurkat-PD-1 Cell Binding High-Content Screening Assay (CBA)
Assay type: cell-based
Settings: Jurkat cell line over-expressing human PD-1; PE-labeled PD-L1-Ig 20 nM final; read-out: Jurkat hPD1-PDL1 IC50
In short: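 Jurkat cells over-expressing human PD-1 (8×10^3 per well, DMEM/10% FCS) preincubated with compound 2 h at 37° C, then PE-labeled human PD-L1-Ig (20 nM final) added for 1 h. Cells fixed with paraformaldehyde, Hoechst-stained, and bound fluorescence quantified by high-content imaging.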

T1 sequence (Q15116 25-288): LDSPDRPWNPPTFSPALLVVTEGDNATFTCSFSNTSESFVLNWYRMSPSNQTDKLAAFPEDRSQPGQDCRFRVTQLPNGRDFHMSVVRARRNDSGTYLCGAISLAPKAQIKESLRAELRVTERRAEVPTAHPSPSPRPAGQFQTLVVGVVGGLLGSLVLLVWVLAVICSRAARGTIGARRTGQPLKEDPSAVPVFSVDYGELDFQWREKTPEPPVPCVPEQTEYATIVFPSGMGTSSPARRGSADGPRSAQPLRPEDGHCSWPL

Row | Structure (SMILES) | IC50 [nM]
1 | CC(C)C[C@@H]1NC(=O)[C@H](Cc2c[nH]c3ccccc23)NC(=O)[C@H](CC(=O)O)NC(=O)[C@H](Cc2ccc(OCC(=O)O)cc2)NC(=O)[C@H](C(C)O)NC(=O)CSC[C@@H](C(=O)N[C@@H](CCN)C(=O)NCCCCCCCCCCC(=O)O)NC(=O)[C@H](CCCCN)NC(=O)[C@H](C(C)O)NC(=O)[C@H](CC2CCCCC2)NC(=O)[C@H](CCN)NC(=O)[C@@H](CC(C)C)NC(=O)[C@H](CCCN)NC(=O)[C@H](Cc2ccc(O)cc2)NC(=O)[C@H](Cc2ccc(-c3ccccc3)cc2)NC1=O (stereo partly drawn) [Compound 3694] ({CH2CO}-[Thr(3ξ)]Y(Carboxymethyl)DWL[Bip]Y[Orn][dL][Dab][Cha][Thr(3ξ)]KC[Dab][Aun]-OH; thioether N-14) | 72.8
2 | CC(C)C[C@H]1NC(=O)[C@H](CCCN)NC(=O)[C@H](Cc2ccc(O)cc2)NC(=O)[C@H](Cc2ccc(-c3ccccc3)cc2)NC(=O)[C@H](Cc2ccc(O)cc2)NC(=O)[C@H](Cc2c[nH]c3ccccc23)NC(=O)[C@H](CC(=O)O)NC(=O)[C@H](Cc2ccc(OCC(=O)O)cc2)NC(=O)[C@H](C(C)O)NC(=O)CSC[C@@H](C(=O)N[C@@H](CCN)C(=O)NCCCCCCCCCCC(=O)O)NC(=O)[C@H](CN)NC(=O)[C@H](C(C)O)NC(=O)[C@H](CC2CCCCC2)NC(=O)[C@H](Cc2cnc[nH]2)NC1=O (stereo partly drawn) [Compound 3695] ({CH2CO}-[Thr(3ξ)]Y(Carboxymethyl)DWY[Bip]Y[Orn][dL]H[Cha][Thr(3ξ)][Dap]C[Dab][Aun]-OH; thioether N-14) | 629
3 | Cc1cccc(C[C@@H]2NC(=O)[C@H](CC(=O)O)NC(=O)[C@H](Cc3ccc(OCC(=O)O)cc3)NC(=O)[C@H](CN)NC(=O)CSC[C@@H](C(=O)N[C@@H](CCN)C(=O)NCCCCCCCCCCC(=O)O)NC(=O)[C@H](CO)NC(=O)[C@H](Cc3cnc[nH]3)NC(=O)[C@H](CC3CCCCC3)NC(=O)[C@H](CCN)NC(=O)[C@@H](CC(C)C)NC(=O)[C@H](CCCN)NC(=O)[C@H](Cc3ccc(OCC(=O)O)cc3)NC(=O)[C@H](Cc3ccc(-c4ccccc4)cc3)NC(=O)[C@H](Cc3ccc(OCC(=O)O)cc3)NC2=O)c1 [Compound 3696] ({CH2CO}-[Dap]Y(Carboxymethyl)D[Phe(3-Me)]Y(Carboxymethyl)[Bip]Y(Carboxymethyl)[Orn][dL][Dab][Cha]HSC[Dab][Aun]-OH; thioether N-14) | 15.1
4 | Cc1cccc(C[C@@H]2NC(=O)[C@H](CC(=O)O)NC(=O)[C@H](Cc3ccc(OCC(=O)O)cc3)NC(=O)[C@H](C(C)O)NC(=O)CSC[C@@H](C(=O)N[C@@H](CCN)C(=O)NCCCCCCCCCCC(=O)O)NC(=O)[C@H](CO)NC(=O)[C@H](Cc3cnc[nH]3)NC(=O)[C@H](CC3CCCCC3)NC(=O)[C@H](CCN)NC(=O)[C@@H](CC(C)C)NC(=O)[C@H](CCCN)NC(=O)[C@H](Cc3ccc(OCC(=O)O)cc3)NC(=O)[C@H](Cc3ccc(-c4ccccc4)cc3)NC(=O)[C@H](Cc3ccc(OCC(=O)O)cc3)NC2=O)c1 (stereo partly drawn) [Compound 3697] ({CH2CO}-[Thr(3ξ)]Y(Carboxymethyl)D[Phe(3-Me)]Y(Carboxymethyl)[Bip]Y(Carboxymethyl)[Orn][dL][Dab][Cha]HSC[Dab][Aun]-OH; thioether N-14) | 11.2
5 | Cc1cccc(C[C@@H]2NC(=O)[C@H](CC(=O)O)NC(=O)[C@H](Cc3ccc(OCC(=O)O)cc3)NC(=O)[C@H](CCN)NC(=O)CSC[C@@H](C(=O)N[C@@H](CCN)C(=O)NCCCCCCCCCCC(=O)O)NC(=O)[C@H](CO)NC(=O)[C@H](C(C)(C)O)NC(=O)[C@H](CC3CCCCC3)NC(=O)[C@H](CCN)NC(=O)[C@@H](CC(C)C)NC(=O)[C@H](CCCN)NC(=O)[C@H](Cc3ccc(C(N)=O)cc3)NC(=O)[C@H](Cc3ccc(-c4ccccc4)cc3)NC(=O)[C@H](Cc3ccc(C(N)=O)cc3)NC2=O)c1 [Compound 3698] ({CH2CO}-[Dab]Y(Carboxymethyl)D[Phe(3-Me)][Phe(4-CONH2)][Bip][Phe(4-CONH2)][Orn][dL][Dab][Cha][Val(3-OH)]SC[Dab][Aun]-OH; thioether N-14) | 15.6
6 | CC(C)C[C@H]1NC(=O)[C@H](CCCN)NC(=O)[C@H](Cc2ccc(O)cc2)NC(=O)[C@H](Cc2ccc(-c3ccccc3)cc2)NC(=O)[C@H](CCCCNC(=O)C(C)(C)C)NC(=O)[C@H](Cc2c[nH]c3ccccc23)NC(=O)[C@H](CC(=O)O)NC(=O)[C@H](Cc2ccc(OCC(=O)O)cc2)NC(=O)[C@H](C(C)O)NC(=O)CSC[C@@H](C(=O)NCCOCCOCC(=O)NCCCCCCCCCCC(=O)O)NC(=O)[C@H](CO)NC(=O)[C@H](Cc2cnc[nH]2)NC(=O)[C@H](CC2CCCCC2)NC(=O)[C@H](CCN)NC1=O (stereo partly drawn) [Compound 3699] ({CH2CO}-[Thr(3ξ)]Y(Carboxymethyl)DWK(Piv)[Bip]Y[Orn][dL][Dab][Cha]HSC[AEEA][Aun]-OH; thioether N-14) | 96.9
7 | CC(C)C[C@@H]1NC(=O)[C@H](Cc2c[nH]c3ccccc23)NC(=O)[C@H](CC(=O)O)NC(=O)[C@H](Cc2ccc(OCC(=O)O)cc2)NC(=O)[C@H](CCN)NC(=O)CSC[C@@H](C(=O)NCCOCCOCC(=O)NCCCCCCCCCCC(=O)O)NC(=O)[C@H](C(C)O)NC(=O)[C@H](C(C)C)NC(=O)[C@H](CC2CCCCC2)NC(=O)[C@H](Cc2cnc[nH]2)NC(=O)[C@@H](CC(C)C)NC(=O)[C@H](CCCN)NC(=O)[C@H](C(C)C)NC(=O)[C@H](Cc2ccc(-c3ccccc3)cc2)NC1=O (stereo partly drawn) [Compound 3700] ({CH2CO}-[Dab]Y(Carboxymethyl)DWL[Bip]V[Orn][dL]H[Cha]V[Thr(3ξ)]C[AEEA][Aun]-OH; thioether N-14) | 56.7
8 | CC(C)C[C@@H]1NC(=O)[C@H](Cc2c[nH]c3ccccc23)NC(=O)[C@H](CC(=O)O)NC(=O)[C@H](Cc2ccc(OCC(=O)O)cc2)NC(=O)[C@H](CCN)NC(=O)CSC[C@@H](C(=O)NCCOCCOCC(=O)NCCCCCCCCCCC(=O)O)NC(=O)[C@H](CO)NC(=O)[C@H](C(C)C)NC(=O)[C@H](CC2CCCCC2)NC(=O)[C@H](Cc2cnc[nH]2)NC(=O)[C@@H](CC(C)C)NC(=O)[C@H](CCCN)NC(=O)[C@H](C(C)C)NC(=O)[C@H](Cc2ccc(-c3ccccc3)cc2)NC1=O [Compound 3701] ({CH2CO}-[Dab]Y(Carboxymethyl)DWL[Bip]V[Orn][dL]H[Cha]VSC[AEEA][Aun]-OH; thioether N-14) | 92.2
9 | Cc1cccc(C[C@@H]2NC(=O)[C@H](CC(=O)O)NC(=O)[C@H](Cc3ccc(OCC(=O)O)cc3)NC(=O)[C@H](C(C)O)NC(=O)CSC[C@@H](C(=O)NCCOCCOCC(=O)NCCCCCCCCCCC(=O)O)NC(=O)[C@H](Cc3cnc[nH]3)NC(=O)[C@H](C(C)O)NC(=O)[C@H](CC3CCCCC3)NC(=O)[C@H](CCN)NC(=O)[C@@H](CC(C)C)NC(=O)[C@H](CCCN)NC(=O)[C@H](C(C)C)NC(=O)[C@H](Cc3ccc(-c4ccccc4)cc3)NC(=O)[C@H](C(C)C)NC2=O)c1 (stereo partly drawn) [Compound 3703] ({CH2CO}-[Thr(3ξ)]Y(Carboxymethyl)D[Phe(3-Me)]V[Bip]V[Orn][dL][Dab][Cha][Thr(3ξ)]HC[AEEA][Aun]-OH; thioether N-14) | 23.4
10 | Cc1cccc(C[C@@H]2NC(=O)[C@H](CC(=O)O)NC(=O)[C@H](Cc3ccc(OCC(=O)O)cc3)NC(=O)[C@H](C(C)O)NC(=O)CSC[C@@H](C(=O)N[C@@H](CCN)C(=O)NCCCCCCCCCCC(=O)O)NC(=O)[C@H](CO)NC(=O)[C@H](Cc3cnc[nH]3)NC(=O)[C@H](CC3CCCCC3)NC(=O)[C@H](CCN)NC(=O)[C@@H](CC(C)C)NC(=O)[C@H](CCCN)NC(=O)[C@H](Cc3ccc(OCC(=O)O)cc3)NC(=O)[C@H](Cc3ccc(-c4ccccc4)cc3)NC(=O)[C@H](Cc3ccc(C(=O)O)cc3)NC2=O)c1 (stereo partly drawn) [Compound 3704] ({CH2CO}-[Thr(3ξ)]Y(Carboxymethyl)D[Phe(3-Me)][Phe(4-COOH)][Bip]Y(Carboxymethyl)[Orn][dL][Dab][Cha]HSC[Dab][Aun]-OH; thioether N-14) | 21.9
11 | Cc1cccc(C[C@@H]2NC(=O)[C@H](CC(=O)O)NC(=O)[C@H](Cc3ccc(OCC(=O)O)cc3)NC(=O)[C@H](CN)NC(=O)CSC[C@@H](C(=O)N[C@@H](CCN)C(=O)NCCCCCCCCCCC(=O)O)NC(=O)[C@H](CO)NC(=O)[C@H](Cc3cnc[nH]3)NC(=O)[C@H](CC3CCCCC3)NC(=O)[C@H](CCN)NC(=O)[C@@H](CC(C)C)NC(=O)[C@H](CCCN)NC(=O)[C@H](Cc3ccc(OCC(=O)O)cc3)NC(=O)[C@H](Cc3ccc(-c4ccccc4)cc3)NC(=O)[C@H](Cc3ccc(C(=O)O)cc3)NC2=O)c1 [Compound 3705] ({CH2CO}-[Dap]Y(Carboxymethyl)D[Phe(3-Me)][Phe(4-COOH)][Bip]Y(Carboxymethyl)[Orn][dL][Dab][Cha]HSC[Dab][Aun]-OH; thioether N-14) | 24.2
12 | Cc1cccc(C[C@@H]2NC(=O)[C@H](CC(=O)O)NC(=O)[C@H](Cc3ccc(OCC(=O)O)cc3)NC(=O)[C@H](Cc3ccccc3)NC(=O)CSC[C@@H](C(=O)N[C@@H](CCN)C(=O)NCCCCCCCCCCC(=O)O)NC(=O)[C@H](CO)NC(=O)[C@H](Cc3cnc[nH]3)NC(=O)[C@H](CC3CCCCC3)NC(=O)[C@H](CCN)NC(=O)[C@@H](CC(C)C)NC(=O)[C@H](CCCN)NC(=O)[C@H](Cc3ccc(OCC(=O)O)cc3)NC(=O)[C@H](Cc3ccc(-c4ccccc4)cc3)NC(=O)[C@H](Cc3ccc(C(=O)O)cc3)NC2=O)c1 [Compound 3706] ({CH2CO}-FY(Carboxymethyl)D[Phe(3-Me)][Phe(4-COOH)][Bip]Y(Carboxymethyl)[Orn][dL][Dab][Cha]HSC[Dab][Aun]-OH; thioether N-14) | 70.3
13 | Cc1cccc(C[C@@H]2NC(=O)[C@H](CC(=O)O)NC(=O)[C@H](Cc3ccc(OCC(=O)O)cc3)NC(=O)[C@H](CN)NC(=O)CSC[C@@H](C(=O)N[C@@H](CCN)C(=O)NCCCCCCCCCCC(=O)O)NC(=O)[C@H](Cc3cnc[nH]3)NC(=O)[C@H](C(C)O)NC(=O)[C@H](CC3CCCCC3)NC(=O)[C@H](CCN)NC(=O)[C@@H](CC(C)C)NC(=O)[C@H](CCCN)NC(=O)[C@H](Cc3ccc(OCC(=O)O)cc3)NC(=O)[C@H](Cc3ccc(-c4ccccc4)cc3)NC(=O)[C@H](Cc3ccc(C(=O)O)cc3)NC2=O)c1 (stereo partly drawn) [Compound 3708] ({CH2CO}-[Dap]Y(Carboxymethyl)D[Phe(3-Me)][Phe(4-COOH)][Bip]Y(Carboxymethyl)[Orn][dL][Dab][Cha][Thr(3ξ)]HC[Dab][Aun]-OH; thioether N-14) | 11.4
